Measurements as given in patent US12410229B2, “PTH mimetic peptide based on protein domain reconstruction and application thereof” (priority 2018, dated 2025).

How the values were obtained:
[1] = system: Bone marrow cells from the bone marrow cavity of 7-week-old mice; experiment: Intermittent (4 h/48 h) PTH mimetic peptide stimulation, osteoclast formation (TRAP); assay type: cell-based, mouse
Protocol: Bone marrow cells from the bone marrow cavity of 7-week-old mice were extracted and cultured in 24-well plates at a density of 1×10^5/well. The 4 h/48 h intermittent PTH mimetic peptide stimulation experiment was carried out as described above. After 7 days, tartrate resistant acid phosphatase (TRAP) staining (bottom row of the holes in FIG. 1A) and quantification were performed (FIG. 1D).
(§1) Primary osteoblasts (two rows of the holes in A) of mouse skulls were intermittently treated with PTH (1-34), MY-3 and MY-1. (within 48 hours, PTH peptide was added to the medium for 4 hours, removed, and cultured in the ordinary medium for 44 hours, then started all over again). At 2 weeks, alkaline phosphatase (ALP) staining (A) and quantification (B) wells were performed in the cell culture. 4 Weekly, calcium nodule staining (A) and calcium ion quantification (C) were performed in culture wells. Bone marrow cells in the femoral shaft bone marrow cavity (lower hole A) received the same treatment with three peptides mentioned above. Two weeks later, tartrate resistant acid phosphatase (TRAP) staining (A) and quantification (D) were performed. […] The same experiment was repeated three times, and same results were obtained. *P<0.05 vs control group (CON), #P<0.05 vs PTH (1-34).

[2] = system: Bone marrow cells from the bone marrow cavity of femur in 7-week-old mice; experiment: Continuous PTH mimetic peptide stimulation, osteoclast formation (TRAP); assay type: cell-based, mouse
Protocol: Bone marrow cells from the bone marrow cavity of femur in 7-week-old mice were extracted and seeded in 24-well plates at a density of 1×10^5/well. The 48 h continuous PTH mimetic peptide stimulation experiment was carried out as described above. After 7 days, tartrate resistant acid phosphatase (TRAP) staining (bottom row of holes in FIG. 2A) and quantification were performed (FIG. 2D).
(§2) Primary osteoblasts (two rows of the holes in A) of mouse skulls were continuously treated with PTH (1-34), MY-3 and MY-1 (within the 48-hour culture cycles, PTH peptide stayed in the culture medium at all times). After 2 weeks, alkaline phosphatase (ALP) staining (A) and quantification (B) wells were performed in the cell culture. After 4 Weeks, calcium nodule staining (A) and calcium ion quantification (C) were performed in culture wells. Bone marrow cells in the femoral shaft bone marrow cavity (lower hole A) received the same treatment with three peptides as described above. Two weeks later, tartrate resistant acid phosphatase (TRAP) staining (A) and quantification (D) were performed. […] The same experiment was repeated three times and same results were obtained. […], #P<0.05 vs PTH (1-34).

C57BL female mice = experiment: Ovariectomy osteoporosis model, tibia histology (paraffin section); assay type: in vivo, mouse; conditions: OVX mice, 2 and 4 weeks, compared with the control group; MY-1 400, PTH (1-34) and MY-3 40 μg/kg/day
Protocol: An osteoporosis model was constructed by removing the ovaries of 7-week-old C57BL female mice. Mice were subcutaneously injected with PTH (3-34) (400 μg/kg/day), MY-1 peptide (400 μg/kg/day), PTH (1-34) (40 μg/kg/day) and MY-3 peptide (40 μg/kg/day) daily (5 days a week), respectively. Mice were sacrificed at 2 and 4 weeks and their tibias were separated, then the cancellous bone mass (BV/TV) and bone mineral density (BMD) of the tibias were measured by micro-CT (FIG. 4).
MY-3 has a stronger anti-bone loss effect than PTH (1-34)-through histological studies. The preparation of the osteoporosis animal model and the administration method of the PTH mimetic peptide was the same as in Example 4. After 2 and 4 weeks, the tibias of experimental mice were removed, decalcified, and prepared for paraffin section. At last, the osteoclast was stained.

[3] = system: Primary mouse skull osteoblasts; experiment: Realtime PCR gene expression after PTH peptide stimulation, osteoblasts; assay type: cell-based; conditions: intermittent stimulation
Protocol: (§3) Primary mouse skull osteoblasts (FIGS. 3A and 3B) and mouse bone marrow cells (FIGS. 3C and 3D) were cultured in cell culture plates. When the cells completely cover the bottom of the culture well, changed to a medium containing 1% fetal bovine serum, added with different concentrations of PTH mimetic peptide (the concentration is the same as above). Cells receiving intermittent stimulation (FIG. 3A and FIG. 3C) were treated with PTH peptides for 4 hours, and normal medium for 44 hours. Such 48-hour cycle repeated three times.
(§4) Cell RNA was extracted 4 hours after the last PTH peptide stimulation for Realtime PCR detection. Cells receiving continuous stimulation (FIG. 3B and FIG. 3D) were cultured in the medium with PTH peptides, and the culture medium containing peptides was changed 48 hours later. Repeated such cycle three times. After 48 hours of the last PTH peptide stimulation, cellular RNA was extracted for Realtime PCR detection. As shown in the figure, the average value and standard deviation of an independent experiment (triple holes) were obtained. The same experiment was repeated three times and same results were obtained. *P<0.05 vs control group (CON), #P<0.05 vs PTH (1-34).

mouse bone marrow cells = experiment: Realtime PCR gene expression after PTH peptide stimulation, bone marrow cells; assay type: cell-based; conditions: continuous stimulation of bone marrow cells (FIG. 3D)
Protocol: as §3, §4

[4] = system: Primary osteoblasts of mouse skulls; experiment: Continuous PTH mimetic peptide stimulation, osteoblast differentiation (ALP, calcium nodules); assay type: cell-based
Protocol: Osteoblasts were isolated from the skulls of newborn mice and cultured in vitro. The cell at density of 1×10^5/well was inoculated in the 24-well culture plate. After 3 days, the continuous PTH mimetic peptide stimulation experiment was started. The PTH mimetic peptide was added to the culture system (containing 10% serum+α-MEM medium) at the corresponding concentration. After 48 hours, when the medium is changed, the PTH mimetic peptide was added again, meaning the PTH mimetic peptide is always in the culture solution. Concentration: MY-1 peptide 10^−6 M, PTH (1-34) peptide 10^−8 M, MY-3 peptide 10^−8 M. Alkaline phosphatase staining was performed 2 weeks later, and calcium nodule staining was performed 4 weeks later (FIG. 2A, upper two rows of the holes). The expression of alkaline phosphatase and the concentration of calcium ion in each well were quantitatively detected (FIGS. 2B and 2C).
as §2

[5] = system: Primary osteoblasts of mouse skulls; experiment: Intermittent (4 h/48 h) PTH mimetic peptide stimulation, osteoblast differentiation (ALP, calcium nodules); assay type: cell-based
Protocol: Osteoblasts were isolated from the skulls of newborn mice and cultured in vitro. The cell at density of 1×10^5/well was inoculated in a 24-well culture plate. After 3 days, a 4 h/48 h intermittent PTH mimetic peptide stimulation experiment was started, which the PTH mimetic peptide was added to the culture system at the corresponding concentration (containing 10% serum+α-MEM Culture medium). After 4 hours, the culture solution was aspirated, the adherent cells were gently washed once with α-MEM medium, then 10% serum+α-MEM medium was added and continued culturing for 44 hours. Repeated this cycle. Concentration: MY-1 peptide 10^−6 M, PTH (1-34) peptide 10^−8 M, MY-3 peptide 10^−8 M.
Alkaline phosphatase staining was performed after 2 weeks, and calcium nodule staining was performed after 4 weeks (FIG. 1A, upper two rows of the holes). Alkaline phosphatase expression and calcium ion concentration of each well were quantitative detected (FIGS. 1B and 1C).
as §1

[6] = clinical applications, in general; cited from earlier work

## CC[C@H](C)[C@H](NC(=O)[C@H](CCC(=O)O)NC(=O)[C@H](CO)NC(=O)[C@@H](NC(=O)[C@@H](N)CO)C(C)C)C(=O)N[C@@H](CCC(N)=O)C(=O)N[C@@H](CC(C)C)C(=O)N[C@@H](CCSC)C(=O)N[C@@H](Cc1cnc[nH]1)C(=O)N[C@@H](CC(N)=O)C(=O)N[C@@H](CC(C)C)C(=O)NCC(=O)N[C@@H](CCCCN)C(=O)N[C@@H](Cc1cnc[nH]1)C(=O)N[C@@H](CC(C)C)C(=O)N[C@@H](CC(N)=O)C(=O)N[C@@H](CO)C(=O)N[C@@H](CCSC)C(=O)N[C@@H](CCC(=O)O)C(=O)N[C@@H](CCCN=C(N)N)C(=O)N[C@H](C(=O)N[C@@H](CCC(=O)O)C(=O)N[C@@H](Cc1c[nH]c2ccccc12)C(=O)N[C@@H](CC(C)C)C(=O)N[C@@H](CCCN=C(N)N)C(=O)N[C@@H](CCCCN)C(=O)N[C@@H](CCCCN)C(=O)N[C@@H](CC(C)C)C(=O)N[C@@H](CCC(N)=O)C(=O)N[C@@H](CC(=O)O)C(=O)N[C@H](C(=O)N[C@@H](Cc1cnc[nH]1)C(=O)N[C@@H](CC(N)=O)C(=O)N[C@@H](Cc1ccccc1)C(=O)O)C(C)C)C(C)C [PTH (1-34), Teriparatide, reference compound]
[1]; intermittent 4 h/48 h stimulation, after 7 days, MY-1 10^−6 M, PTH (1-34) 10^−8 M, MY-3 10^−8 M, mean ± SD
  TRAP: 9.61 ± 1.78 U/g protein
[1]; intermittent stimulation, TRAP staining
  osteoclast formation (in words): the same effect of promoting osteoclast formation
[2]; TRAP staining
  osteoclast formation (in words): the same effect on promoting osteoclast formation
[2]; after 7 days, MY-1 10^−6 M, PTH (1-34) 10^−8 M, MY-3 10^−8 M, mean ± SD
  TRAP: 11.80 ± 1.99 U/g protein
C57BL female mice
  number of trabecular bones (in words): increased
[3]
  expression of osteogenic marker gene ALP and OC (in words): promote the expression of osteogenic marker gene ALP and OC
Mouse bone marrow cells
  RANKL expression (in words): significantly promoted RANKL expression
  expression of ALP and OC (in words): inhibited the expression of ALP and OC
[4]
  osteogenic differentiation of osteoblasts (in words): inhibit the differentiation of osteoblasts
[4]; 2 weeks, MY-1 10^−6 M, PTH (1-34) 10^−8 M, MY-3 10^−8 M, mean ± SD
  ALP: 1.02 ± 0.28 U/g protein
[4]; 4 weeks, MY-1 10^−6 M, PTH (1-34) 10^−8 M, MY-3 10^−8 M, mean ± SD
  Calcium: 0.12 ± 0.03 mmole/g protein
[5]; intermittent 4 h/48 h stimulation, 2 weeks, MY-1 10^−6 M, PTH (1-34) 10^−8 M, MY-3 10^−8 M, mean ± SD
  ALP: 4.91 ± 0.55 U/g protein
[5]; intermittent 4 h/48 h stimulation, 4 weeks, MY-1 10^−6 M, PTH (1-34) 10^−8 M, MY-3 10^−8 M, mean ± SD
  Calcium: 0.49 ± .06 mmole/g protein
[5]; intermittent stimulation
  osteogenic differentiation of osteoblasts (in words): can promote osteogenic differentiation of osteoblasts
[6]
  reduction of the incidence of vertebral fractures: about 76%
